The target in one assay is Cathepsin B (Homo sapiens, UniProt P07858). Briefly: Compound was evaluated for its inhibitory activity against Cathepsin B.
The target in assay [1] is T1, Calpain-1 catalytic subunit (Homo sapiens, UniProt P07384).
T1 sequence (P07384 whole entry): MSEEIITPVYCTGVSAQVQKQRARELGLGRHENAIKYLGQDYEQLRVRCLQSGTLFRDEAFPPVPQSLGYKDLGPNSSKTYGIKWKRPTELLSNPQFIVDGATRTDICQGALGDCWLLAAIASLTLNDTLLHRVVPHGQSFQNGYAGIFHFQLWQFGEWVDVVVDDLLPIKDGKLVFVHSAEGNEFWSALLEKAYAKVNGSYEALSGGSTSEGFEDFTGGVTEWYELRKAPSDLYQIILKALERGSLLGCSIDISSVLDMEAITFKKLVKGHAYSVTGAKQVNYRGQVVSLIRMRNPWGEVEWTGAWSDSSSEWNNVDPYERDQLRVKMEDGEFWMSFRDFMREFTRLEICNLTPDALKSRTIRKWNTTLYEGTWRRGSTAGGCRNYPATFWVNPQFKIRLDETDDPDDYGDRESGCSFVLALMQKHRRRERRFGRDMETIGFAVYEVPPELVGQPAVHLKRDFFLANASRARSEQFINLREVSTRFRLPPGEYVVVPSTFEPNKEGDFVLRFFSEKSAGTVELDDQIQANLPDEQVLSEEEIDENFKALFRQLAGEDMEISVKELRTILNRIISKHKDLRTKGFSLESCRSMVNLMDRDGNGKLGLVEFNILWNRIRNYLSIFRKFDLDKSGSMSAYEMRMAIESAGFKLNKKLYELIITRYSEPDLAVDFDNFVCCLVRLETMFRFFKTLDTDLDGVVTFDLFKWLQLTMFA
Description: Compound was evaluated for its inhibitory activity against the Calpain 1 enzyme.

The target of another assay is T2, Caspase-6 (Homo sapiens, UniProt P55212).
T2 sequence (P55212 whole entry): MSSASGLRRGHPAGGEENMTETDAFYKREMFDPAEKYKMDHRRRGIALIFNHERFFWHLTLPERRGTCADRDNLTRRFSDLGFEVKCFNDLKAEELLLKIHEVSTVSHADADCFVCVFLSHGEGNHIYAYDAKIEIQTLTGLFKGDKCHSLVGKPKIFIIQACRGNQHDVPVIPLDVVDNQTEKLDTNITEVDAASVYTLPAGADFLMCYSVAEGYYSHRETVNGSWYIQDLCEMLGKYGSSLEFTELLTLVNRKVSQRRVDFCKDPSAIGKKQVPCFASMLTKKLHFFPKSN
Briefly: Compound was evaluated for its inhibitory activity against the Caspase-6 enzyme.

The next assay addresses T3, Caspase-1 (Homo sapiens, UniProt P29466).
T3 sequence (P29466 whole entry): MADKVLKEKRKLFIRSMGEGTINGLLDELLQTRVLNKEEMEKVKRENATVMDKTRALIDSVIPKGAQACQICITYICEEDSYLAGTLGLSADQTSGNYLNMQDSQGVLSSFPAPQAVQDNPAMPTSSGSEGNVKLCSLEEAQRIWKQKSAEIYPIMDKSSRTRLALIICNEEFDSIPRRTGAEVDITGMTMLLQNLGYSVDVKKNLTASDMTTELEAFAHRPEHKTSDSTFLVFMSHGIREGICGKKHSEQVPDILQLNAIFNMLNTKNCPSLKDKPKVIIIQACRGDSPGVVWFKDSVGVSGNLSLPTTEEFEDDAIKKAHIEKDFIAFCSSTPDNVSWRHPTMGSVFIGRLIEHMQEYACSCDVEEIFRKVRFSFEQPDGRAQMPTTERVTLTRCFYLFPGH
Description: Compound was evaluated for its inhibitory activity against the Caspase-1 enzyme.

The next assay deals with T4, Caspase-9 (Homo sapiens, UniProt P55211).
T4 sequence (P55211 whole entry): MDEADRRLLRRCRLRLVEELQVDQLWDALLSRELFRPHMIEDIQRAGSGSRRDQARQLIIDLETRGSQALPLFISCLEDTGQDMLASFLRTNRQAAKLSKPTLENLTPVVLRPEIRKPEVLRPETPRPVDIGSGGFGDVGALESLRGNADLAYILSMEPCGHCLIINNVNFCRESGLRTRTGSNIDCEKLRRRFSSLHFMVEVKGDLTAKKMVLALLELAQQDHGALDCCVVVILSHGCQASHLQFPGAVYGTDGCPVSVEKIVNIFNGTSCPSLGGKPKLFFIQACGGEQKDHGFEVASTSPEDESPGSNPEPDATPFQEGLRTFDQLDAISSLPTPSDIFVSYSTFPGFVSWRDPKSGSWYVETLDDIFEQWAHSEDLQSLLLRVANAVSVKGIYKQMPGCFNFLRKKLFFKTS
Description: Compound was evaluated for its inhibitory activity against the Caspase-9 enzyme.

Another assay has as its target Coagulation factor X (Homo sapiens, UniProt P00742). Briefly: Compound was evaluated for its inhibitory activity against the Coagulation factor X.
The target of another assay is Prothrombin (Homo sapiens, UniProt P00734). Briefly: Compound was evaluated for its inhibitory activity against the Thrombin.
The next assay concerns the target T5, Caspase-3 (Homo sapiens, UniProt P42574).
T5 sequence (P42574 whole entry): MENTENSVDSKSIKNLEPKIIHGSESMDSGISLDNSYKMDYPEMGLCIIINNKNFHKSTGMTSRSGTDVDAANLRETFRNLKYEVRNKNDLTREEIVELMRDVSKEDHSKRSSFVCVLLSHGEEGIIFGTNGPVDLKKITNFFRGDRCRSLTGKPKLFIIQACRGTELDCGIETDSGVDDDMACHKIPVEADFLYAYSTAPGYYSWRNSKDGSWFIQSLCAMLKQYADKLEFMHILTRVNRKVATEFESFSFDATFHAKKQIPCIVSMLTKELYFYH
Briefly: Inhibitory activity against human recombinant Caspase-3 enzyme.

A further assay concerns the target T6, Caspase-7 (Homo sapiens, UniProt P55210).
T6 sequence (P55210 whole entry): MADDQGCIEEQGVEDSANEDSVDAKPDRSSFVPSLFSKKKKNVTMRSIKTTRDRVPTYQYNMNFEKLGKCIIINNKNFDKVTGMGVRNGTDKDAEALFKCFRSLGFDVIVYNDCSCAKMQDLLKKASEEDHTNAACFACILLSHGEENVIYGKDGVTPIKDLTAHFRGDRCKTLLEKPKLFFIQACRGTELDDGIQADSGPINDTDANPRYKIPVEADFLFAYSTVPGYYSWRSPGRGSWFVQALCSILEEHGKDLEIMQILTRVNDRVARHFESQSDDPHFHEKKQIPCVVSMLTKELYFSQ
Briefly: Compound was evaluated for its inhibitory activity against the Caspase-7 enzyme.

Another assay has as its target Caspase-8 (Homo sapiens, UniProt Q14790). Description: Compound was evaluated for its inhibitory activity against the Caspase-8 enzyme.
Assay [2] addresses T1, Calpain-1 catalytic subunit. Description: Compound was evaluated for its inhibitory activity against the Calpain-1 enzyme.

Structures are written as SMILES.

Sequence of Coagulation factor X (P00742 41-179 limits assumed): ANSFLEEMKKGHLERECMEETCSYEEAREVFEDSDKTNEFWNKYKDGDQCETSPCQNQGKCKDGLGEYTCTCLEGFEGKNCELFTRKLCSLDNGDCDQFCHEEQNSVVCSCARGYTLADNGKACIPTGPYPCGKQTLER
Sequence of Coagulation factor X (P00742 235-488 limits assumed): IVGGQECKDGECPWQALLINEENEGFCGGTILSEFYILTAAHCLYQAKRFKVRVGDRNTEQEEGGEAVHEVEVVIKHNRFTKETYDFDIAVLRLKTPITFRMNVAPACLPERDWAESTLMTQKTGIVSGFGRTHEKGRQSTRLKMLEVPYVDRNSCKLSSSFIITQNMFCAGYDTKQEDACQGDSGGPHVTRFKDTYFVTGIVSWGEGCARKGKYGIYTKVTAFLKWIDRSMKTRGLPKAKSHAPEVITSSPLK
Sequence of Caspase-8 (Q14790 217-374 limits assumed): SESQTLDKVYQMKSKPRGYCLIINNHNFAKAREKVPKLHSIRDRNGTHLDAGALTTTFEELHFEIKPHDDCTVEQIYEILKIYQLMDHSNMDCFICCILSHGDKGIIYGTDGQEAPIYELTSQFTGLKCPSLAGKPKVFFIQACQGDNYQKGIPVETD
Sequence of Caspase-8 (Q14790 385-479 limits assumed): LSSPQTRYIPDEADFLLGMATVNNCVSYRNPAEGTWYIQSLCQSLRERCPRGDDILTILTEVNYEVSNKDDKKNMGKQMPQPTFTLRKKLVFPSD

In general, IC50 refers to the midpoint of a concentration-inhibition curve. Turning to `CC(C)[C@H](NC(=O)OCc1ccccc1)C(=O)NC(CC(=O)O)C(=O)CF` (stereo partly specified), the half-inhibitory concentration (IC50) at Cathepsin B is over 10000 nM; in assay [1], over 10000 nM; on Caspase-6, 18 nM; against Caspase-1, 20 nM; against Caspase-9 it was 5 nM; on Coagulation factor X it was over 100000 nM. Further, the 50% inhibitory concentration (IC50) against Prothrombin is over 100000 nM; on Caspase-3 it was 30 nM; against Caspase-7, 7 nM; against Caspase-8 it was 7 nM.

Take `COC(=O)CC(NC(=O)[C@@H](NC(=O)OCc1ccccc1)C(C)C)C(=O)CF` (stereo partly specified): the concentration for half-maximal inhibition (IC50) on Cathepsin B is 300 nM; on Caspase-1 it was 900 nM; against Coagulation factor X, over 100000 nM; against Prothrombin, over 100000 nM; at Caspase-3, 1100 nM; in assay [2] it was 120 nM.

(Values after ChEMBL document CHEMBL1147604, “Dipeptidyl aspartyl fluoromethylketones as potent caspase-3 inhibitors: SAR of the P2 amino acid” (Bioorg Med Chem Lett, 2004).)
